{"source": "patent US20110201562A1", "about": "“FORMULATIONS AND METHOD FOR TREATING BALDNESS” (SEDERMA, priority 2005, published 2011)", "key": {"[1]": {"test_system": "blood vessels in the dermis", "experiment": "Vasodilation on the scalp (statement, no method)"}, "[2]": {"test_system": "hair follicles", "experiment": "Cultured hair follicles: growth monitored over 14 days", "format": "cell-based", "conditions": "2 ppm in medium", "experimental": "Excess hair follicles prepared in the context of a micrograft transplantation session were collected for culturing in a medium similar to that reported in, and herein encorporated by reference, Philpott et al., Whole Hair Follicule Culture, Dermatologic Clinics 595 (Oct. 14, 1996). Said hair follicles were then individually incubated at 37° C. under an air plus CO2 (at 5%) atmosphere for 14 days. The explants were then divided into four groups: 1) a control group for the culture medium alone, 2) a positive control group which was exposed to a medium of 2 ppm Minoxidil®, 3) a test group exposed to the peptide biotinyl-GHK in a medium of 2 ppm biotinyl-GHK, and 4) a test group exposed to the peptide biotinyl-GHK in a medium of 5 ppm biotinyl-GHK. The culture medium was changed every 2 days. General morphology was observed on Day 1 and Day 14. Concomitantly, a fraction of the follicles were frozen for the purposes of conducting more advanced immunohistochemical studies. Growth in the follicles was monitored using a digital camera with images being taken on Day 0, Day 3, Day 5, Day 7, Day 11, and Day 14."}, "[3]": {"test_system": "5α-reductase", "experiment": "Inhibition of 5α-reductase (statement, no method)", "format": "biochemical"}}, "data": [{"smiles": "O=c1cc(-c2ccc(O)cc2)oc2cc(O)cc(O)c12", "note": "[Apigenin]", "values": [{"measurement": "effect of use on the scalp on blood vessels", "setting": "[1]", "value": "dilates the blood vessels in the dermis"}]}, {"smiles": "Nc1cc(N2CCCCC2)nc(N)[n+]1[O-]", "note": "[Minoxidil®, Minoxidil, reference compound]", "values": [{"measurement": "more growth than observed from the control group", "setting": "[2]", "value": 58, "unit": "%"}]}, {"smiles": "CC1(C)CC[C@]2(C(=O)O)CC[C@]3(C)C(=CC[C@@H]4[C@@]5(C)CC[C@H](O)C(C)(C)[C@@H]5CC[C@]43C)[C@@H]2C1", "note": "[oleanolic acid]", "values": [{"measurement": "inhibitory action on the enzyme 5α-reductase", "setting": "[3]", "value": "strong inhibitory action"}]}]}
